Test results published in ChEMBL document CHEMBL6071133, “Discovery of novel penetrating peptides able to target human leukemia and lymphoma for enhanced PROTAC delivery” (Eur J Med Chem, 2024).

Tests used:
[1] = Drug uptake in human KU812 cells assessed as perinuclear distribution and colocalization with nucleus at 10 umol/L incubated for 2 hrs by confocal laser microscopy; format: ADME, cell-based; conditions: ku812, 2 h, 10 µM, dose 10 µmol/L
[2] = Drug uptake in human K562 cells assessed as perinuclear distribution and colocalization with nucleus at 10 umol/L incubated for 2 hrs by confocal laser microscopy; format: ADME, cell-based; conditions: k562, 2 h, 10 µM, dose 10 µmol/L
[3] = Drug uptake in human CCRF-CEM cells assessed as perinuclear distribution and colocalization with nucleus at 10 umol/L incubated for 2 hrs by confocal laser microscopy; format: ADME, cell-based; conditions: 10 µM, dose 10 µmol/L
[4] = Drug uptake in human CCRF-CEM cells assessed as increase in fluorescence intensity at 1 to 10 uM incubated for 2 hrs by flow cytometry; format: ADME, cell-based; conditions: dose 1-10 µM
[5] = Drug uptake in human THP-1 cells assessed as increase in fluorescence intensity at 10 umol/L incubated for 2 hrs by cell imaging based fluorescence microscopic analysis; format: ADME; conditions: thp-1, 2 h, 10 µM, dose 10 µmol/L
[6] = Drug uptake in human CCRF-CEM cells assessed as membrane penetration by measuring increase in fluorescence intensity at 5 umol/L incubated for 2 hrs by flow cytometry relative to C9C; format: ADME, cell-based; conditions: 5 µM, dose 5 µmol/L
[7] = Drug uptake in human CCRF-CEM cells assessed as increase in fluorescence intensity at 5 umol/L measured for 60 to 240 mins by flow cytometry; format: ADME, cell-based; conditions: 5 µM, TDE = time-dependent effect, time 60-240 min, dose 5 µmol/L
[8] = Drug uptake in human CCRF-CEM cells assessed as increase in fluorescence intensity at 5 umol/L measured for 5 to 60 mins by flow cytometry; format: ADME, cell-based; conditions: 5 µM, time 5-60 min, dose 5 µmol/L
[9] = Drug uptake in human CCRF-CEM cells assessed as increase in fluorescence intensity at 1 to 10 umol/L incubated for 2 hrs by cell imaging based fluorescence microscopic analysis; format: ADME; conditions: dose 1-10 µmol/L

- Drug uptake [1]: Active
- Drug uptake [2]: Active
- Drug uptake [3]: Active
- Drug uptake [4]: Dose-Dependent Effect
- Drug uptake [5]: Active
- fold change (FC) [6]: 2.97
- Drug uptake [7]: Tde
- Drug uptake [8]: Active
- Drug uptake [9]: Active
SMILES: CC(C)C[C@@H]1NC(=O)[C@H](Cc2csc3ccccc23)NC(=O)[C@@H](Cc2ccccc2)NC(=O)[C@H](Cc2ccccc2)NC(=O)[C@H](CCCNC(=N)N)NC(=O)[C@H](CCCCN)NC(=O)[C@H](CCC(=O)O)NC(=O)[C@H](CO)NC(=O)[C@H](CCCNC(=N)N)NC1=O
